Source: ChEMBL document CHEMBL1137431, “Discovery of small molecule integrin alphavbeta3 antagonists as novel anticancer agents” (J Med Chem, 2006)

Tests used:
MDA-MB-435 [1] = assay: Cytotoxicity against human MDA-MB-435 cell line by MTT assay; assay type: functional, cell-based
MCF7 [2] = assay: Cytotoxicity against human MCF7 cell line by MTT assay; assay type: functional, cell-based
HEY [3] = assay: Cytotoxicity against human HEY cell line by MTT assay; assay type: functional, cell-based
NIH3T3 = assay: Cytotoxicity against mouse NIH3T3 cell line by MTT assay; assay type: functional, cell-based
NCI-H1975 = assay: Cytotoxicity against human NCI-H1975 cell line by MTT assay; assay type: functional, cell-based
HEY [4] = assay: Cytotoxicity against human HEY cell line at 20 uM by MTT assay; assay type: functional
MCF7 [5] = assay: Cytotoxicity against human MCF7 cell line at 20 uM by MTT assay; assay type: functional
MDA-MB-435 [6] = assay: Cytotoxicity against human MDA-MB-435 cell line at 20 uM by MTT assay; assay type: functional
Integrin alpha-V/beta-3 = Integrin alpha-V/beta-3 (Homo sapiens, UniProt P05106+P06756); assay: Inhibition of [125I]echistatin binding to integrin alphaVbeta3 receptor; assay type: protein-complex assay
Sequence of Integrin alpha-V/beta-3 (P05106 27-788 limits assumed): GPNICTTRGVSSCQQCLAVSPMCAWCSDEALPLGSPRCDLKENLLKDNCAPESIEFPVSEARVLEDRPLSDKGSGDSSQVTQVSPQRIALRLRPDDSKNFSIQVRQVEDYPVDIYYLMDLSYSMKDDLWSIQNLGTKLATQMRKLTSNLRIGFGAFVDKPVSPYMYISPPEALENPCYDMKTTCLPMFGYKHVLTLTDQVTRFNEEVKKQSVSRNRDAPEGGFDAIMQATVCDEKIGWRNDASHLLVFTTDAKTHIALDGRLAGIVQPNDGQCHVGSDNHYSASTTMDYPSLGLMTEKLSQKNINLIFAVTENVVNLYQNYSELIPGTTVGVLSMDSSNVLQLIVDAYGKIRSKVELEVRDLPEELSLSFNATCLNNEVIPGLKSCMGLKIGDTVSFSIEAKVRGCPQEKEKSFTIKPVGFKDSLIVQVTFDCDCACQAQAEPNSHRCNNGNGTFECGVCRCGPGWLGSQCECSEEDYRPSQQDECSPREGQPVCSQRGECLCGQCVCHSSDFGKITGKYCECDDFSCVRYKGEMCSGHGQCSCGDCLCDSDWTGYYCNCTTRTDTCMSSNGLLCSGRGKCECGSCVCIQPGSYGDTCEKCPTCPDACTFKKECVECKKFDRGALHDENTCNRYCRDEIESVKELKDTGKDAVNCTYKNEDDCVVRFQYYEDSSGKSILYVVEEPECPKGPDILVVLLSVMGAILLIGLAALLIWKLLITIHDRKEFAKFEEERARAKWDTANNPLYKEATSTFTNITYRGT
Sequence of Integrin alpha-V/beta-3 (P06756 31-889 limits assumed): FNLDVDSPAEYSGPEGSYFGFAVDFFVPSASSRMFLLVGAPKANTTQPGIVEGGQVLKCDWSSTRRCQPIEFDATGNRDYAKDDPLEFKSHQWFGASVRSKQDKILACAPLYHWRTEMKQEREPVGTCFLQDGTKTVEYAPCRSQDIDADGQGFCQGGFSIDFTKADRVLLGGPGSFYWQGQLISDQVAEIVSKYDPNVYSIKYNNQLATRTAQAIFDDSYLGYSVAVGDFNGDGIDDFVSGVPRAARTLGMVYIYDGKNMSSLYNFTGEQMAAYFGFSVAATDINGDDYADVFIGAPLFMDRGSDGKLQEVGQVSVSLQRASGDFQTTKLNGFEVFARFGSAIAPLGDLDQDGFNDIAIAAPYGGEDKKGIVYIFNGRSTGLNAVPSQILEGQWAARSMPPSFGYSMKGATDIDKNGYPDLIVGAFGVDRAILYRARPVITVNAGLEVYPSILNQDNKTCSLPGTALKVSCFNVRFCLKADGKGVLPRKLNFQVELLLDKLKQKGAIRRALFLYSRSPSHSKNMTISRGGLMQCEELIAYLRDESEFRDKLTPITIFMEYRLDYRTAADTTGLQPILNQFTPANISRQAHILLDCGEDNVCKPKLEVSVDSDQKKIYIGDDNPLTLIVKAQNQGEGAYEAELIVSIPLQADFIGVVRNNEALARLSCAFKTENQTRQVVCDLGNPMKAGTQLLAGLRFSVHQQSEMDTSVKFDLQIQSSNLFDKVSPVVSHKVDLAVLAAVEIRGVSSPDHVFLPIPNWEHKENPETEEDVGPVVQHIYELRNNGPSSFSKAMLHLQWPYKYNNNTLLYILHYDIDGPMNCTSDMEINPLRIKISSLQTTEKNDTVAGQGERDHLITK
Sequence of Integrin alpha-V/beta-3 (P06756 891-1048 limits assumed): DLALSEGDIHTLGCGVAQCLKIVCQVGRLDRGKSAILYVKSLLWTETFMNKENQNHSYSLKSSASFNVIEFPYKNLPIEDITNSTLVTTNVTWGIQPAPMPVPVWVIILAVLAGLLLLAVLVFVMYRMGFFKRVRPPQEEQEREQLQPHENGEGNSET

Row | Structure (SMILES) | IC50 (MDA-MB-435 [1]) [µM] | IC50 (MCF7 [2]) [µM] | IC50 (HEY [3]) [µM] | inhibition at 20 µM (HEY [4]) [%] | further results
1 | CCOc1ccc(/N=C2/S/C(=C\c3ccc(N(C)C)cc3)C(=O)N2CC)cc1 | > 20 | > 20 | > 20 |  | IC50 (NIH3T3): > 20 µM; IC50 (NCI-H1975): > 20 µM
2 | COc1cc(Cl)c(/C=C2\S/C(=N/c3cccc(C(=O)O)c3)N(C)C2=O)cc1OC | > 20 | > 20 | > 20 | 0 | IC50 (NIH3T3): > 20 µM; IC50 (NCI-H1975): > 20 µM
3 | CC1=NN(c2ccc(C(=O)O)cc2)C(=O)/C1=C/c1ccc(-c2ccc(S(N)(=O)=O)cc2)o1 | > 20 | 19 | > 20 | 6 | 
4 | CCOc1cc(/C=C2/S/C(=N\c3ccc(C(=O)O)cc3)N(C)C2=O)ccc1O | 0.34 | > 20 | 13 | 51 | inhibition at 20 µM (MCF7 [5]): 37%; inhibition at 20 µM (MDA-MB-435 [6]): 94%; IC50 (Integrin alpha-V/beta-3): 0.24 µM; IC50 (NIH3T3): > 20 µM; IC50 (NCI-H1975): > 20 µM
5 | Cc1nnc(N/N=C/c2ccc(OCC(=O)O)cc2)nc1O |  |  |  | 0 | 
6 | CCn1cc(C(=O)O)c(=O)c2cc(F)c(N3CCN(S(=O)(=O)c4ccc(NC(C)=O)cc4)CC3)cc21 |  |  |  | 0 | 
7 | O=C(CSc1nnn(-c2ccc(O)cc2)n1)NCc1cccc(C(=O)O)c1 |  |  |  | 0 | inhibition at 20 µM (MCF7 [5]): 34%; inhibition at 20 µM (MDA-MB-435 [6]): 9%
8 | COc1cc(/C=C2/NC(=O)N(CC(=O)Nc3ccc(C)cc3)C2=O)ccc1OCc1cccc(C(=O)O)c1 |  |  |  | 0 | inhibition at 20 µM (MCF7 [5]): 43%; inhibition at 20 µM (MDA-MB-435 [6]): 26%
9 | CC1=NN(c2ccc(S(N)(=O)=O)cc2)C(=O)/C1=C\c1ccc(-c2ccccc2C(=O)O)o1 |  |  |  | 5 | inhibition at 20 µM (MCF7 [5]): 20%; inhibition at 20 µM (MDA-MB-435 [6]): 24%
10 | CN(Cc1cnc2nc(N)nc(N)c2n1)c1ccc(C(=O)NC(CCCCN)C(=O)O)cc1 (configuration not stated) |  |  |  | 0 | 
11 | O=C(O)c1ccc(-c2ccc(/C=N/Nc3nc(Nc4ccccc4)nc(Nc4ccccc4)n3)o2)cc1 | 18 | > 20 | 21 |  | 
12 | CN(C)c1ccc(/C=C2\SC(=Nc3ccc(O)cc3)NC2=O)cc1 | 2.8 | > 20 | > 20 |  | IC50 (Integrin alpha-V/beta-3): > 1 µM
13 | O=C(O)c1cccc(-c2ccc(/C=N/Nc3nc4nonc4nc3Nc3ccc(F)cc3)o2)c1 | 8 | 19 | 7 | 90 | IC50 (Integrin alpha-V/beta-3): > 1 µM; IC50 (NIH3T3): 13 µM; IC50 (NCI-H1975): > 20 µM
14 | COc1cc(O)c(Cl)cc1/C=C1\S/C(=N/c2cccc(C(=O)O)c2)N(C)C1=O |  |  |  | 0 | inhibition at 20 µM (MCF7 [5]): 9%; inhibition at 20 µM (MDA-MB-435 [6]): 3%
15 | O=C(O)COc1ccc(/C=N/NC(=O)c2ccc(O)cc2)cc1OCC(=O)O |  |  |  | 9 | 
16 | O=C(CCCCn1cnc2c(S)ncnc21)Nc1ccc(C(=O)O)c(O)c1 |  |  |  | 0 | 
17 | CS(=O)(=O)Nc1ccc(C2=NN(C(=O)CCCC(=O)O)C(c3ccco3)C2)cc1 (configuration not stated) | > 20 | > 20 | > 20 |  | IC50 (NIH3T3): > 20 µM; IC50 (NCI-H1975): > 20 µM
18 | Nc1nc(=O)c2cc(CSc3ccc(C(=O)NC(CCC(=O)O)C(=O)O)cc3)ccc2[nH]1 (configuration not stated) |  |  |  | 0 | 
19 | COc1cc(/C=N/Nc2nc(Nc3ccc(F)cc3)nc(N3CCCCC3)n2)ccc1OCC(=O)O |  |  |  | 0 | 
20 | Nc1nc(O)c2nc(CCCNc3ccc(C(=O)NC(CCC(=O)O)C(=O)O)cc3)cnc2n1 (configuration not stated) | > 20 | > 20 | > 20 | 0 | IC50 (NIH3T3): > 20 µM; IC50 (NCI-H1975): > 20 µM
21 | Nc1nc(O)c2nc3c(nc2n1)C(=O)N(c1ccc(C(=O)NC(CCC(=O)O)C(=O)O)cc1)C3 (configuration not stated) |  |  |  | 0 | 
22 | CC(=O)Nc1nc(O)c2nc(CCN(C)c3ccc(C(=O)O)cc3)cnc2n1 |  |  |  | 0 | 
23 | Nc1nc(O)c2cc(COc3ccc(C(=O)NC(CCC(=O)O)C(=O)O)cc3)ccc2n1 (configuration not stated) |  |  |  | 6 | 
24 | Cc1ccc(NC(=O)CN2C(=O)N/C(=C\c3cccn3-c3cccc(C(=O)O)c3)C2=O)cc1 | > 20 | > 20 | > 20 | 5 | IC50 (NIH3T3): > 20 µM; IC50 (NCI-H1975): > 20 µM
25 | Nc1ccc(C(=O)Nc2nc3ccc(C(=O)O)cc3s2)cc1 |  |  |  | 0 | 
26 | CCOc1cc(/C=N/Nc2nc(Nc3ccccc3)nc(N3CCCCC3)n2)ccc1OCC(=O)O |  |  |  | 0 | 
27 | COc1cc(OC)c(/C=C2\S/C(=N/c3ccc(C(=O)O)cc3)N(C)C2=O)cc1Br |  |  |  | 4 | 
28 | Cc1ccnc(NS(=O)(=O)c2ccc(NC(=O)c3ccc(C(=O)O)cc3C(=O)O)cc2)n1 |  |  |  | 0 | 
29 | CC1=C(C#N)c2nc(N)c(C#N)c(C)c2/C1=C/c1ccc(-c2ccc(Cl)c(C(=O)O)c2)o1 |  |  |  | 14 | 
